Where a chain is given by its changes, count along the chain named.
Assays:
Type in all cases: biochemical
ALDH2*1/*2 = molecular target: T1, ALDH2*1/*2 (Homo sapiens, UniProt P05091, E504K); experiment: ALDH2 enzymatic activity, NADH accumulation at 340 nm, acetaldehyde substrate, heterozygous form; settings: relative to baseline enzymatic activity (100%); for activity at 2.5 µM: 2.5 μM compound; for activity at 5 µM: 5 μM compound; for activity at 10 µM: 10 μM compound; for activity at 20 µM: 20 μM compound
T1 construct: His-tag; made in house; host or cells: E. coli BL21 (pETDuet-1 co-expression)
T1 sequence (P05091 18-517): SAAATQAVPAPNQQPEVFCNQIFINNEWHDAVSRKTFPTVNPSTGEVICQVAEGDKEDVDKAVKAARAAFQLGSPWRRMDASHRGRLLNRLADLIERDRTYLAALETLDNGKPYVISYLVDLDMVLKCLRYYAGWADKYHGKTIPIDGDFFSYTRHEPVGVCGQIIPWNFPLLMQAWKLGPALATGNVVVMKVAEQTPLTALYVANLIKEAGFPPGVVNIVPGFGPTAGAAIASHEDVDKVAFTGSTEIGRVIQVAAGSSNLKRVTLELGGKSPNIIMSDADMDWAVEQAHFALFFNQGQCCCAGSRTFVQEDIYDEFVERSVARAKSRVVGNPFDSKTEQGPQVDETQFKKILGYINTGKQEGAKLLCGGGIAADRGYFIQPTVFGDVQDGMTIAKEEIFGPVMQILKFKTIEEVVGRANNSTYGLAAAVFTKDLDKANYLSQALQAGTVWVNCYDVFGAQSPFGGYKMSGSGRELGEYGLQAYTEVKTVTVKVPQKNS
T1 sequence (P05091 18-517 E504K): T1 sequence (P05091 18-517) with E487K
Procedure: (§1) ALDH2 catalyzes the oxidative reaction of substrate acetaldehyde to acetic acid using NAD^+ as a cofactor. Enzymatic activity, or catalytic rate, of aldehyde dehydrogenase (ALDH2) are measured spectrophotometrically at UV wavelength λ340 nm by the accumulation of reduced product NADH derived from NAD^+. Absorbance at λ340 nm is quantitatively proportional to the amount of NADH being produced over time (6.22 O.D. unit=1 mmol of NADH, measured in a 1-cm width standard cuvette). This method is well-established in the literature [e.g. Rex et al., Alcohol Clin. Exp. Res. 9, 147 (1985)].
as §1, with “can be” for “are”
(§2) Cloning, expression and purification of human ALDH2 wild type and ALDH2*2 recombinant mutant enzymes: Full-length wild type human ALDH2 cDNA was purchased from ATCC (No. MGC-1806. GenBank ID: BC002967). The 18-amino acid mitochondria transport signal sequence was removed by PCR and cloned into the NheI/HindIII sites of a His-tag vector, pTrcHis, using standard molecular cloning techniques. The human ALDH2* cDNA construct containing the Asian E487K mutation was obtained by site-directed mutagenesis to create the E487K substitution of the wild type ALDH2. Both human clones were designed to express a recombinant protein with the His-tag at the N-terminus of the protein. For the co-expression experiments of human ALDH2 wild type and ALDH2*2 heterotetramers, a wild type ALDH2 gene and a ALDH2 E487K gene were inserted separately into the two multiple cloning sites of pETDuet-1 vector. (Novagen, CA, USA). All the vectors were transformed into BL21 E. coli host cells and subjected to 0.5 mM IPTG induction for protein expression at 30° C. Purifications of the recombinant proteins by affinity nickel columns (HisTrap, GE Healthy Science, USA) were carried out using standard protocols according to manufacturer's instructions (Novagen, USA).
(§3) ALDH2 catalyzes the oxidative reaction of substrate acetaldehyde to acetic acid using NAD^+ as a cofactor. Enzymatic activity, or catalytic rate, of aldehyde dehydrogenase (ALDH2) can be measured spectrophotometrically at UV wavelength λ340 nm by the accumulation of reduced product NADH derived from NAD^+. Because compounds of formula (I) are considered to be agonists or “activators” of ALDH2 the enzymatic activity measured will exceed 100% of the baseline enzymatic activity of the enzyme in its normal activation state. As the concentration of the compounds of formula (I) decreases from 20 micromolar to 0.16 micromolar in the presence of ALDH, a decrease in the activation of enzymatic activity is observed for the wild-type ALDH2*1/*1 and the heterozygous form ALDH2*1/*2.

ALDH2 = molecular target: T2, ALDH2 (Homo sapiens, UniProt P05091); experiment: ALDH2 activity with 20 μM of the compound (Table 3); settings: 20 μM compound
T2 construct: His-tag (N); made in house; host or cells: E. coli BL21
T2 sequence (P05091 18-517): T1 sequence (P05091 18-517)
Procedure: as §1
as §1, with “can be” for “are”
as §3

ALDH2*1/*1 = molecular target: T3, ALDH2*1/*1 (Homo sapiens, UniProt P05091); experiment: ALDH2 enzymatic activity, NADH accumulation at 340 nm, acetaldehyde substrate, wild type; settings: relative to baseline enzymatic activity (100%); for activity at 2.5 µM: 2.5 μM compound; for activity at 5 µM: 5 μM compound; for activity at 10 µM: 10 μM compound; for activity at 20 µM: 20 μM compound
T3 construct: His-tag (N); made in house; host or cells: E. coli BL21 (pTrcHis vector)
T3 sequence (P05091 18-517): T1 sequence (P05091 18-517)
Procedure: as §1
as §1, with “can be” for “are”
as §2, §3

SMILES | activity at 2.5 µM (ALDH2*1/*2) [%] | activity at 5 µM (ALDH2*1/*2) [%] | activity at 10 µM (ALDH2*1/*2) [%] | activity at 20 µM (ALDH2*1/*2) [%] | activity at 20 µM (ALDH2) [%] | activity at 2.5 µM (ALDH2*1/*1) [%] | activity at 5 µM (ALDH2*1/*1) [%] | activity at 10 µM (ALDH2*1/*1) [%] | activity at 20 µM (ALDH2*1/*1) [%]
COc1ccc(CNC(=O)c2cc(-c3ccccc3CO)ncc2OCC2CC2)cc1F [AC3] | 180 | 245 | 310 | 376 | 150 to 250 | 150 | 195 | 220 | 319
COc1ccc(CNC(=O)c2cc(-c3cc(F)ccc3CO)ccc2OCC2CC2)cc1F [AC17] | 156 | 173 | 176 | 195 | > 250 | 229 | 262 | 340 | 318
COc1ccc(CNC(=O)c2cc(-c3cscc3CO)ccc2OCC2CC2)cc1F [AC29] | 260 | 349 | 392 | 423 | > 250 | 283 | 334 | 422 | 445
COc1ccc(CNC(=O)c2cc(-c3ccccc3CO)cnc2OCC2CC2)cc1F [AC1, 2-(cyclopropylmethoxy)-N-(3-fluoro-4-methoxybenzyl)-5-(2-(hydroxymethyl)phenyl)nicotinamide] | 220 | 294 | 383 | 453 | > 250 | 175 | 242 | 288 | 412
COc1ccc(CNC(=O)c2cc(-c3sccc3CO)ccc2OCC2CC2)cc1F [AC28] | 201 | 239 | 338 | 456 | > 250 | 197 | 252 | 366 | 430
COc1ccc(CNC(=O)c2cc(-c3cccc(F)c3CO)ccc2OCC2CC2)cc1F [AC21] | 110 | 198 | 247 | 250 | > 250 | 161 | 209 | 272 | 370
COc1ccc(CNC(=O)c2cc(-c3c(F)cccc3CO)cnc2OCC2CC2)cc1F [AC19] | 133 | 163 | 191 | 230 | > 250 | 132 | 143 | 214 | 236
COc1ccc(CNC(=O)c2cc(-c3ccc(F)cc3CO)cnc2OCC2CC2)cc1F [AC4] | 266 | 338 | 390 | 423 | > 250 | 204 | 280 | 300 | 363
COc1ccc(CNC(=O)c2cc(-c3cccc(F)c3CO)cnc2OCC2CC2)cc1F [AC18] | 127 | 145 | 172 | 197 | 150 to 250 | 119 | 131 | 171 | 187
COc1ccc(CNC(=O)c2cc(-c3c[n+]([O-])ccc3CO)ccc2OCC2CC2)cc1F [AC13] | 146 | 195 | 247 | 296 | 150 to 250 | 164 | 168 | 215 | 237
COc1ccc(CNC(=O)c2cc(-c3c(F)cccc3CO)ccc2OCC2CC2)cc1F [AC22] | 160 | 194 | 253 | 143 | > 250 | 172 | 263 | 313 | 437
COc1ccc(CNC(=O)c2cc(-c3c(CO)cccc3N(C)C)cnc2OCC2CC2)cc1F [AC15] | 105 | 129 | 160 | 203 | 150 to 250 | 124 | 106 | 143 | 169
COc1ccc(CNC(=O)c2cc(-c3cc(F)ccc3CO)cnc2OCC2CC2)cc1F [AC20] | 157 | 218 | 255 | 93 | > 250 | 170 | 238 | 308 | 403
COc1ccc(CNC(=O)c2cc(-c3ccncc3CO)ccc2OCC2CC2)cc1F [AC9] | 224 | 287 | 317 | 402 | > 250 | 218 | 276 | 354 | 376
CCNCc1ccccc1-c1ccc(OCC2CC2)c(C(=O)NCc2ccc(OC)c(F)c2)c1 [AC84] |  |  |  |  | 150 to 250 |  |  |  | 
COc1cc(OC)c(CNC(=O)c2cc(-c3ncccc3CO)ccc2OCC2CC2)cc1F [AC148] |  |  |  |  | 150 to 250 |  |  |  | 
COc1ccc(CNC(=O)c2cc(-c3ncccc3CO)ccc2OC)cc1F [AC96] |  |  |  |  | 150 to 250 |  |  |  | 
COc1ccc(CNC(=O)c2cc(-c3cnccc3CO)ccc2OC2CCCCC2)cc1F [AC109] |  |  |  |  | > 250 |  |  |  | 
COc1ccc(CNC(=O)c2cc(-c3ccccc3C(=O)N(C)C)cnc2OCC2CC2)cc1F [AC79] |  |  |  |  | 100 to 150 |  |  |  | 

From patent US9879036B2, “Mitochondrial aldehyde dehydrogenase-2 binding compounds and methods of use thereof” (Aviv Therapeutics, Inc., priority 2014, dated 2018)
